{
  "source": "patent US20240173346A1",
  "about": "“LINE-1 INHIBITORS TO TREAT CNS AND SYSTEMIC DISEASES” (TRANSPOSON THERAPEUTICS, INC., priority 2021, published 2024)",
  "system": "human LINE-1",
  "assay": "Human LINE-1 retrotransposition assay (HeLa cell-based dual-luciferase reporter, plasmid pYX017)",
  "details": "HeLa cells; for IC50: 72 h incubation",
  "protocol": "Islatravir and other compounds were tested for inhibition of retrotransposition activity of human LINE-1 in HeLa cells according to the following procedure.\nHeLa cervical cancer cells were cultivated at 37° C. in a humidified 5% CO2 incubator in Dulbecco's Modified Eagle's Medium (DMEM)—high glucose, with 4500 mg/L glucose, L-glutamine, sodium pyruvate and sodium bicarbonate (Sigma), supplemented with 10% of heat inactivated fetal bovine serum (Thermo Fisher).\nAssays were performed using reporter plasmid pYX017 as described (Xie, et al., 2011) with several modifications. The reporter assay was performed in 96-well white optical bottom plates. HeLa cells were seeded in wells 24 h prior to transfection and compound treatment so that cells were approximately 30% confluent on the day of transfection. Different cell plating densities were tested and a density of 2×10^3 cells was determined to be optimal.\nCompounds were resuspended in DMSO. Serial dilutions (1:3) were prepared in DMSO. Medium containing different concentrations of the compounds were prepared by adding 2 μl of the compound dilution to 1 ml of the culture medium. The final concentration of DMSO in the medium was 0.2%.\nFuGENE® HD transfection reagent (Promega, E2311, Lot 382574 and Lot 397842) was used to transfect the plasmids into the cells. The transfection reagent: DNA mixture was prepared in OpiMEM (Thermo Fisher) according to manufacturer's instructions. Different ratios of transfection reagent to DNA were tested and a ratio of 3:1 was determined to be optimal. Culture medium was removed from the cells and discarded. The transfection reagent: DNA mixture (5 μl) was mixed with the compound containing medium (100 μl/well) and this was added onto the cells of each well. Cells were incubated at 37° C./5% CO2 for different incubation time. A 72 h incubation time was determined to be optimal.\nLuciferase reporter activity was quantified with the Dual-Luciferase® Reporter Assay System (Promega) according to manufacturer's instructions for multiwell plates except that cells were lysed directly on the multiwell plate with 30 μl of the passive lysis buffer (PLB) for 20 min at room temperature, with gentle shaking to ensure complete cell lysis.\nFirefly and Renilla luciferase signals were measured using a SpectraMax i3x Multi-Mode Microplate Reader. Integration times of 100 ms and 10 ms were used to measure the Firefly and Renilla signals respectively. Relative L1 activity is calculated as Firefly/Renilla *1000 or Firefly/Renilla *10,000. Dose response inhibition data were fit to a four parameter logistic equation using non-linear regression (using Graphpad Prism 8), to determine IC50 values for each inhibitor.",
  "key": {"[1]": {"details": "Homo sapiens, Firefly/Renilla luciferase, experiment 1, read-out: Human LINE-1 IC50, Exp. 1"}, "[2]": {"details": "Homo sapiens, Firefly/Renilla luciferase, experiment 2, read-out: Human LINE-1 IC50, Exp. 2"}, "[3]": {"details": "Homo sapiens, Firefly/Renilla luciferase, experiment 3, read-out: Human LINE-1 IC50, Exp. 3"}, "[4]": {"details": "Homo sapiens, Firefly/Renilla luciferase, experiment 4, read-out: Human LINE-1 IC50, Exp. 4"}, "[5]": {"details": "Homo sapiens, average of n = 2-4 experiments, read-out: Human LINE-1 IC50, Average"}, "[6]": {"details": "Homo sapiens, compounds of Table 1 (Table 4), read-out: Human LINE-1 IC50"}},
  "note": "Structures can show the parent of a compound that is named as a salt. Where two headings read alike, the source gives them in different places.",
  "data": [
    {"smiles": "Nc1ccn([C@@H]2CS[C@H](CO)O2)c(=O)n1", "note": "[Lamivudine]", "values": [
      {"measurement": "IC50", "setting": "[1]", "result": 790, "unit": "nM"},
      {"measurement": "IC50", "setting": "[2]", "result": 870, "unit": "nM"},
      {"measurement": "IC50", "setting": "[3]", "result": 570, "unit": "nM"},
      {"measurement": "IC50", "setting": "[4]", "result": 340, "unit": "nM"}
    ]},
    {"smiles": "Nc1nc(=O)n([C@@H]2CS[C@H](CO)O2)cc1F", "note": "[Emtricitabine]", "values": [
      {"measurement": "IC50", "setting": "[3]", "result": 1390, "unit": "nM"},
      {"measurement": "IC50", "setting": "[4]", "result": 1300, "unit": "nM"}
    ]},
    {"smiles": "CC(C)OC(=O)OCOP(=O)(CO[C@H](C)Cn1cnc2c(N)ncnc21)OCOC(=O)OC(C)C", "note": "[Tenofovir disoproxil]", "values": [
      {"measurement": "IC50", "setting": "[3]", "result": 140, "unit": "nM"},
      {"measurement": "IC50", "setting": "[4]", "result": 260, "unit": "nM"}
    ]},
    {"smiles": "Nc1nc(=O)n([C@@H]2C=C[C@H](CO)O2)cc1F", "note": "[Elvucitabine]", "values": [
      {"measurement": "IC50", "setting": "[1]", "result": 90, "unit": "nM"},
      {"measurement": "IC50", "setting": "[3]", "result": 80, "unit": "nM"},
      {"measurement": "IC50", "setting": "[4]", "result": 110, "unit": "nM"},
      {"measurement": "IC50", "setting": "[5]", "result": 90, "unit": "nM"}
    ]},
    {"smiles": "CC[C@]1(CO)O[C@@H](n2cc(C)c(=O)[nH]c2=O)C[C@@H]1O", "note": "[compound 19]", "values": [
      {"measurement": "IC50", "setting": "[6]", "result": 2000, "unit": "nM"}
    ]},
    {"smiles": "C#C[C@]1(CO)O[C@@H](n2cc(C)c(N)nc2=O)C[C@@H]1O", "note": "[compound 6]", "values": [
      {"measurement": "IC50", "setting": "[6]", "result": 18600, "unit": "nM"}
    ]},
    {"smiles": "Nc1nc(NC2CC2)c2ncn([C@H]3C=C[C@@H](CO)C3)c2n1", "note": "[Abacavir sulfate]", "values": [
      {"measurement": "IC50", "setting": "[3]", "result": 16800, "unit": "nM"},
      {"measurement": "IC50", "setting": "[4]", "result": 17400, "unit": "nM"}
    ]},
    {"smiles": "Nc1ccn([C@H]2CO[C@@H](CO)S2)c(=O)n1", "note": "[Apricitabine]", "values": [
      {"measurement": "IC50", "setting": "[3]", "result": 7690, "unit": "nM"},
      {"measurement": "IC50", "setting": "[4]", "result": 5220, "unit": "nM"},
      {"measurement": "IC50", "setting": "[5]", "result": 6460, "unit": "nM"}
    ]},
    {"smiles": "CC[C@]1(CO)O[C@@H](n2cnc3c(O)nc(N)nc32)C[C@@H]1O", "note": "[compound 20]", "values": [
      {"measurement": "IC50", "setting": "[6]", "result": 3, "unit": "nM"}
    ]},
    {"smiles": "C#C[C@]1(CO)O[C@@H](n2cnc3c(N)nc(F)nc32)C[C@@H]1O", "note": "[Islatravir, 2′-deoxy-4′-ethynyl-2-fluoroadenosine]", "values": [
      {"measurement": "IC50", "setting": "[5]", "result": 1.3, "unit": "nM"}
    ]},
    {"smiles": "C=C[C@]1(CO)O[C@@H](n2ccc(N)nc2=O)C[C@@H]1O", "note": "[compound 18]", "values": [
      {"measurement": "IC50", "setting": "[6]", "result": 8, "unit": "nM"}
    ]},
    {"smiles": "C#C[C@@]1(CO)C=C[C@H](n2cc(C)c(=O)[nH]c2=O)O1", "note": "[Censavudine, 4′-ethynylstavudine]", "values": [
      {"measurement": "human LINE-1 inhibitor activity compared to the other reverse transcriptase inhibitory drugs tested", "setting": "comparison in words", "result": "unexpectedly better human LINE-1 inhibitor activity"},
      {"measurement": "IC50", "setting": "[2]", "result": 90, "unit": "nM"},
      {"measurement": "IC50", "setting": "[3]", "result": 80, "unit": "nM"},
      {"measurement": "IC50", "setting": "[5]", "result": 70, "unit": "nM"}
    ]},
    {"smiles": "C[C@H](Cn1cnc2c(N)ncnc21)OCP(=O)(O)O", "note": "[Tenofovir]", "values": [
      {"measurement": "IC50", "setting": "Firefly/Renilla luciferase, experiment 3, read-out: Human LINE-1 IC50, Exp. 3", "result": 3310, "unit": "nM"},
      {"measurement": "IC50", "setting": "Firefly/Renilla luciferase, experiment 4, read-out: Human LINE-1 IC50, Exp. 4", "result": 2230, "unit": "nM"}
    ]},
    {"smiles": "Cc1cn([C@H]2C=C[C@@H](CO)O2)c(=O)[nH]c1=O", "note": "[Stavudine]", "values": [
      {"measurement": "IC50", "setting": "[3]", "result": 780, "unit": "nM"},
      {"measurement": "IC50", "setting": "[4]", "result": 710, "unit": "nM"}
    ]}
  ]
}
